Laboratory results as given in ChEMBL document CHEMBL4622904, “The discovery of azetidine-piperazine di-amides as potent, selective and reversible monoacylglycerol lipase (MAGL) inhibitors” (Bioorg Med Chem Lett, 2020).

Tests used:
Chymase (Homo sapiens) = molecular target: T1, Chymase (Homo sapiens) (UniProt P23946); assay: Inhibition of chymase (unknown origin) at 10 uM relative to control
T1 sequence (whole entry): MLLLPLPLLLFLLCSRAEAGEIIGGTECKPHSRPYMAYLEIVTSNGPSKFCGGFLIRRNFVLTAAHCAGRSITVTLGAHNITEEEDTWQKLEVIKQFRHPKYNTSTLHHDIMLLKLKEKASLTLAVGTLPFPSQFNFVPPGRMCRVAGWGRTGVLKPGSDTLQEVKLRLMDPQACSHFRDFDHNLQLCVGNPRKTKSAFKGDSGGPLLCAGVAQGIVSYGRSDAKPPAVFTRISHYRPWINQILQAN

Bacteria = assay: Inhibition of bacterial streptokinase at 10 uM relative to control
Rattus norvegicus [1] = assay: Effect on 2-AG level in brain of Sprague-Dawley rat 10 mg/kg, po (reference value: 11.96 nmol/g); assay type: functional
[2] = molecular target: T2, Fatty-acid amide hydrolase 1 (Homo sapiens, UniProt O00519); assay: Inhibition of FAAH (unknown origin)
T2 sequence (O00519 whole entry): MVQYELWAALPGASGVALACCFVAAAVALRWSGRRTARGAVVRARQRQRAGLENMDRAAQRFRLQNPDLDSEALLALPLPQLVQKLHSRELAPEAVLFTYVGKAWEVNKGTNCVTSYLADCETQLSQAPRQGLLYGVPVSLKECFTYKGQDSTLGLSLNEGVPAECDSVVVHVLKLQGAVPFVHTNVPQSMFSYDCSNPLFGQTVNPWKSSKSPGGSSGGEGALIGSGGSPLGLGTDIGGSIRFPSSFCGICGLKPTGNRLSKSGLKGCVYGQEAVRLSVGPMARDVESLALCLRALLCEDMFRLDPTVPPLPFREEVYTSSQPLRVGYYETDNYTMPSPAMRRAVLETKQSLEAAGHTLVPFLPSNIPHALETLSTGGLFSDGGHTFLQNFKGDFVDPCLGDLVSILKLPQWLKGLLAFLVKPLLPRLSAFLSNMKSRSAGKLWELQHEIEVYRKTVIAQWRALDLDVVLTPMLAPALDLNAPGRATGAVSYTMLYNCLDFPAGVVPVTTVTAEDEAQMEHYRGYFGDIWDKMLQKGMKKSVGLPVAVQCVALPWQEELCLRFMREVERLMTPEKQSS

Homo sapiens = species on record: Homo sapiens; assay: Inhibition of elastase (unknown origin) at 10 uM relative to control
[3] = Drug concentration in brain of Sprague-Dawley rat at 3 mg/kg, po; assay type: ADME, organism-based; conditions: in vivo, read-out: Ct
[4] = molecular target: T3, Myeloblastin (Homo sapiens) (UniProt P24158); assay: Inhibition of proteinase 3 (unknown origin) at 10 uM relative to control
T3 sequence (whole entry): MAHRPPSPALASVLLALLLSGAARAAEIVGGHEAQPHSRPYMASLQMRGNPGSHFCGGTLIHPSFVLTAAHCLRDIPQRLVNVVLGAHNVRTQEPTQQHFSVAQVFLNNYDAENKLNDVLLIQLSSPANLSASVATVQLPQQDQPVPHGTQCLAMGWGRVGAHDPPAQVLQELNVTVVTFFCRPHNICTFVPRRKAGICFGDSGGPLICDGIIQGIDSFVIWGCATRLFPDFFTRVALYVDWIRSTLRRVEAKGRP

[5] = Drug concentration in brain of Sprague-Dawley rat at 1 mg/kg, po; assay type: ADME, organism-based; conditions: in vivo, read-out: Ct
Rattus norvegicus [6] = assay: Reversal of complete freund's adjuvant-induced thermal hyperalgesia in po dosed Sprague-Dawley rat model assessed as increase in paw withdrawal latency time pre-exposed to thermal stimuli followed by CFA injection and subsequent compound administration; assay type: functional
[7] = molecular target: Urokinase-type plasminogen activator (Homo sapiens) (UniProt P00749); assay: Inhibition of urokinase (unknown origin) at 10 uM relative to control
[8] = molecular target: Chymotrypsin (Homo sapiens) (UniProt Q99895+P17538+P40313+Q6GPI1); assay: Inhibition of chymotrypsin (unknown origin) at 10 uM relative to control; assay type: protein assay
[9] = Oral bioavailability in monkey at 10 mg/kg; assay type: ADME, organism-based, Macaca mulatta; conditions: rhesus monkey, in vivo
[10] = molecular target: Plasma kallikrein (Homo sapiens) (UniProt P03952); assay: Inhibition of kallikrein (unknown origin) at 10 uM relative to control
Rattus norvegicus [11] = assay: Reversal of complete freund's adjuvant-induced thermal hyperalgesia in Sprague-Dawley rat model assessed as increase in paw withdrawal latency time at 1 to 30 mg/kg, po pre-exposed to thermal stimuli followed by CFA injection and subsequent compound administration relative to control; assay type: functional
Cannabinoid receptor 1 = Cannabinoid receptor 1 (Homo sapiens, UniProt P21554); assay: Binding affinity to CB1 receptor (unknown origin); assay type: ADME
[12] = molecular target: Plasminogen (Homo sapiens) (UniProt P00747); assay: Inhibition of plasmin (unknown origin) at 10 uM relative to control
[13] = Tmax in dog at 10 mg/kg, po; assay type: ADME, organism-based, Canis lupus familiaris; conditions: in vivo
[14] = Tmax in rat at 10 mg/kg, po; assay type: ADME, organism-based; conditions: in vivo
[15] = Half life in monkey at 10 mg/kg, po; assay type: ADME, organism-based, Macaca mulatta; conditions: rhesus monkey, in vivo
Tryptase (Homo sapiens) = Tryptase (Homo sapiens) (UniProt Q9BZJ3+Q15661+Q9NRR2); assay: Inhibition of tryptase (unknown origin) at 10 uM relative to control; assay type: protein assay
Rattus norvegicus [16] = assay: Effect on 2-AG level in brain of Sprague-Dawley rat 3 mg/kg, po (reference value: 11.96 nmol/g); assay type: functional
[17] = Drug concentration in blood of Sprague-Dawley rat at 30 mg/kg, po; assay type: ADME, organism-based; conditions: in vivo, read-out: Ct
[18] = Clearance in rat at 10 mg/kg, po; assay type: ADME, organism-based; conditions: in vivo
[19] = Drug concentration in blood of Sprague-Dawley rat at 10 mg/kg, po; assay type: ADME, organism-based; conditions: in vivo, read-out: Ct
[20] = Cmax in dog at 10 mg/kg, po; assay type: ADME, organism-based, Canis lupus familiaris; parameters: dose 10 mg/kg, route oral; conditions: in vivo
Rattus norvegicus [21] = assay: Reversal of complete freund's adjuvant-induced thermal hyperalgesia in Sprague-Dawley rat model assessed as increase in paw withdrawal latency time at 1 to 30 mg/kg, po pre-exposed to thermal stimuli followed by CFA injection and subsequent compound administration; assay type: functional
Rattus norvegicus [22] = assay: Reversal of complete freund's adjuvant-induced thermal hyperalgesia in Sprague-Dawley rat model assessed as increase in paw withdrawal latency time at 30 mg/kg, po pre-exposed to thermal stimuli followed by CFA injection and subsequent compound administration; assay type: functional, organism-based; conditions: TDE = time-dependent effect
Rattus norvegicus [23] = assay: Effect on 2-AG level in brain of Sprague-Dawley rat 1 mg/kg, po (reference value: 11.96 nmol/g); assay type: functional

Chain of Plasminogen (Homo sapiens) (P00747 97-580 limits assumed): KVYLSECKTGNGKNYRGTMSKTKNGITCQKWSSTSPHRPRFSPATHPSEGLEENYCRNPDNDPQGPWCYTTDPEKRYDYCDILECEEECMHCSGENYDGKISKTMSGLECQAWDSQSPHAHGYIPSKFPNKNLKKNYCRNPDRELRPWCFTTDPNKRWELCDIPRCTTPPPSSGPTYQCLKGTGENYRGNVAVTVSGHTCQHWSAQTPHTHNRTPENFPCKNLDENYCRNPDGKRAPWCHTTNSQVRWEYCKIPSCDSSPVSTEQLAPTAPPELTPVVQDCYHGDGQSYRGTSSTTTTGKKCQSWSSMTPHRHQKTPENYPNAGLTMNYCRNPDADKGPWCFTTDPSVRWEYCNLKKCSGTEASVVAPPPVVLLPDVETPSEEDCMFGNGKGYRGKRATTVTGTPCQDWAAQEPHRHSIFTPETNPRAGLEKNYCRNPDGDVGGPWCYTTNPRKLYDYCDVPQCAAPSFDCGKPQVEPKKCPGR
Chain of Plasminogen (Homo sapiens) (P00747 581-810 limits assumed): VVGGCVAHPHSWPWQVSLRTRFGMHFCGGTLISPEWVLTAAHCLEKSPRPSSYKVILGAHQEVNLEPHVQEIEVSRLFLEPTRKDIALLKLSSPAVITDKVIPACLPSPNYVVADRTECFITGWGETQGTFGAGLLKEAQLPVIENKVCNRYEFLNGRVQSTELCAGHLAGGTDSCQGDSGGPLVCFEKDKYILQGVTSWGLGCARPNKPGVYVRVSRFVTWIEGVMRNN
Chain of Plasma kallikrein (Homo sapiens) (P03952 20-390 limits assumed): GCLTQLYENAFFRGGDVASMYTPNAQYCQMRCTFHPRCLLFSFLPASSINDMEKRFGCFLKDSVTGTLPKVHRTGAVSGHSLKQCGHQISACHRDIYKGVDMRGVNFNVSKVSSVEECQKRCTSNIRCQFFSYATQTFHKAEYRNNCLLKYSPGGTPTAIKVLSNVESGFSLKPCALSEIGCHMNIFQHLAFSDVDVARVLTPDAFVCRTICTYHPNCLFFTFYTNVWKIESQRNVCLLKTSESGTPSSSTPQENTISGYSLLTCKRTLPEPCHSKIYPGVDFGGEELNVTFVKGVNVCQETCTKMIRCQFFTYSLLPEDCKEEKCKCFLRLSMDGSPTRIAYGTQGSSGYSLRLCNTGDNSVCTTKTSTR
Chain of Plasma kallikrein (Homo sapiens) (P03952 391-638 limits assumed): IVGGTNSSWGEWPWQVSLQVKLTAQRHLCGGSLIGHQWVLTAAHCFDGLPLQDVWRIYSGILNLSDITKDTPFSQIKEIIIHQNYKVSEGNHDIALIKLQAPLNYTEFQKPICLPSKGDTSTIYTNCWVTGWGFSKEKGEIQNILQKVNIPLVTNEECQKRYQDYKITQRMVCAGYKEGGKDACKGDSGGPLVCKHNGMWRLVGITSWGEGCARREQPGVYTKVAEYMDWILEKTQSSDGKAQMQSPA
Chain of Cannabinoid receptor 1 (P21554 whole entry): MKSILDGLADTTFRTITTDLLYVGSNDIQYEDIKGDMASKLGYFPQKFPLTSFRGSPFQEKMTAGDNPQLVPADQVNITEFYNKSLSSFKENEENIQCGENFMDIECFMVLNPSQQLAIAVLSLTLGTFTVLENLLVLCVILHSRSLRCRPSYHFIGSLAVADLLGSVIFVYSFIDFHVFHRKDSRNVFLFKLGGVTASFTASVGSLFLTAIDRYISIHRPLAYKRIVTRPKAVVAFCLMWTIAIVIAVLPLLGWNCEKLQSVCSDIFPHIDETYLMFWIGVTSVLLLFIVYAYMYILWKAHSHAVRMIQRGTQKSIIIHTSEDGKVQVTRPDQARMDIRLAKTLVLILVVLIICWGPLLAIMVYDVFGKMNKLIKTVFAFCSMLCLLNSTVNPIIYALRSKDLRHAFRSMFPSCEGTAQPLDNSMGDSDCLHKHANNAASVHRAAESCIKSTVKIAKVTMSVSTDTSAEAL

inhibition (Chymase (Homo sapiens)): 11%
inhibition (Bacteria): 1%
IC50 [2]: 4 µM
inhibition (Homo sapiens): 4%
concentration [3]: 339 nM
inhibition [4]: 7%
concentration [5]: 142 nM
inhibition [7]: 2%
inhibition [8]: -3%
bioavailability [9]: 82%
inhibition [10]: 4%
IC50 (Cannabinoid receptor 1): > 10 µM
inhibition [12]: 4%
Tmax [13]: 2 h
Tmax [14]: 1.75 h
half-life [15]: 4.62 h
inhibition (Tryptase (Homo sapiens)): 2%
concentration [17]: 3070 nM
CL/F [18]: 19.2 mL/min/kg
concentration [19]: 519 nM
Cmax [20]: 2860 ng/mL
Compound: O=C(c1ccc2c(ccn2-c2ccc(F)cc2)c1)N1CC(N2CCN(C(=O)c3nccs3)CC2)C1
Activity (Rattus norvegicus [1]): 46.43 nmol/g
ED50 (Rattus norvegicus [6]): 3 mg/kg
Activity (Rattus norvegicus [11]): 100%
Activity (Rattus norvegicus [16]): 33.01 nmol/g
Time (Rattus norvegicus [21]): 100 min
Activity (Rattus norvegicus [22]): Tde
Activity (Rattus norvegicus [23]): 19.28 nmol/g
